# Measured values published in ChEMBL document CHEMBL1201862, “PubChem BioAssay data set” (2004).
#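 Cells were grown in 96-well plates and exposed to each compound for 48 hours at five concentrations; endpoints were interpolated linearly between bracketing concentrations, or set to the highest concentration if not reached. The concentration for 50% growth inhibition is given as GI50.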 Calls of active or inactive are those of the source. Cut-off read from the data, not from the text of the source: active = GI50 up to about 1.1 µM and inactive = higher.
# What was measured:
# Assay in all cases: DTP human tumour cell line panel, 48 h
# [1] = test system: ACHN
# [2] = test system: MDA-N
# [3] = test system: IGROV-1
# [4] = test system: T47D
# [5] = test system: M14
# [6] = test system: PC-3
# [7] = test system: SK-OV-3
# [8] = test system: NCI/ADR-RES
# [9] = test system: SF-539
# [10] = test system: SK-MEL-2
# [11] = test system: NCI-H522
# [12] = test system: HOP-92
# [13] = test system: SF-268
# [14] = test system: SK-MEL-28
# [15] = test system: K562
# [16] = test system: MOLT-4
# [17] = test system: DU-145
# [18] = test system: CCRF-CEM
# [19] = test system: KM12
# [20] = test system: SR
# [21] = test system: 786-0
# [22] = test system: HCT-116
# [23] = test system: BT-549
# [24] = test system: U-251
# [25] = test system: RXF 393
# [26] = test system: A549
# [27] = test system: LOX IMVI
# [28] = test system: MDA-MB-231
# [29] = test system: OVCAR-8
# [30] = test system: MDA-MB-435
# [31] = test system: UO-31
# [32] = test system: HL-60
# [33] = test system: A498
# [34] = test system: TK-10
# [35] = test system: OVCAR-3
# [36] = test system: NCI-H226
# [37] = test system: CAKI-1
# [38] = test system: SNB-75
# [39] = test system: NCI-H460
# [40] = test system: SK-MEL-5
# [41] = test system: SNB-19
# [42] = test system: HCT-15
# [43] = test system: HCC 2998
# [44] = test system: RPMI-8226
# [45] = test system: Malme-3M
# [46] = test system: SF-295
# [47] = test system: HT-29
# [48] = test system: NCI-H23
# [49] = test system: SW-620
# [50] = test system: COLO 205
# [51] = test system: SN12C
# [52] = test system: Hs-578T
# [53] = test system: OVCAR-4
# [54] = test system: HOP-62
# [55] = test system: UACC-257
# [56] = test system: MCF7
# [57] = test system: EKVX
# [58] = test system: OVCAR-5
# [59] = test system: UACC-62
# [60] = test system: DMS-273
# [61] = test system: LXFL 529
# [62] = test system: KM-20L2
# [63] = test system: SNB-78
# [64] = test system: DMS-114
# [65] = test system: M19-MEL
smiles,measurement,setting,value
C=C1[C@@H](O)C[C@@]23CC[C@@H]4[C@@]5(C)CC[C@@H](OC(C)=O)C(C)(C)[C@@H]5C[C@@H](OC5OC(COC(C)=O)C(O)C(O)C5O)[C@@]4(C)C2=CC[C@H]3[C@H]1C (some centres not stated),GI50,[1],9.12 µM (inactive)
same,GI50,[2],5.16 µM (inactive)
same,GI50,[3],3.8 µM (inactive)
same,GI50,[4],5.09 µM (inactive)
same,GI50,[5],4.49 µM (inactive)
same,GI50,[6],3.66 µM (inactive)
same,GI50,[7],13.1 µM (inactive)
same,GI50,[8],17.5 µM (inactive)
same,GI50,[9],11.8 µM (inactive)
same,GI50,[10],2.34 µM (inactive)
same,GI50,[11],5.35 µM (inactive)
same,GI50,[12],7.38 µM (inactive)
same,GI50,[13],4.82 µM (inactive)
same,GI50,[14],7.35 µM (inactive)
same,GI50,[15],2.99 µM (inactive)
same,GI50,[16],2.5 µM (inactive)
same,GI50,[17],10.5 µM (inactive)
same,GI50,[18],2.97 µM (inactive)
same,GI50,[19],2.1 µM (inactive)
same,GI50,[20],2.33 µM (inactive)
same,GI50,[21],6.14 µM (inactive)
same,GI50,[22],3.43 µM (inactive)
same,GI50,[23],8.17 µM (inactive)
same,GI50,[24],3.03 µM (inactive)
same,GI50,[25],4.27 µM (inactive)
same,GI50,[26],4.49 µM (inactive)
same,GI50,[27],3.01 µM (inactive)
same,GI50,[28],5.47 µM (inactive)
same,GI50,[29],7.13 µM (inactive)
same,GI50,[30],4.51 µM (inactive)
same,GI50,[31],14.1 µM (inactive)
same,GI50,[32],2.27 µM (inactive)
same,GI50,[33],9.73 µM (inactive)
same,GI50,[34],8.41 µM (inactive)
same,GI50,[35],3.72 µM (inactive)
same,GI50,[36],4.43 µM (inactive)
same,GI50,[37],13.1 µM (inactive)
same,GI50,[38],3.96 µM (inactive)
same,GI50,[39],4.13 µM (inactive)
same,GI50,[40],4 µM (inactive)
same,GI50,[41],4.93 µM (inactive)
same,GI50,[42],12.4 µM
same,GI50,[43],1.75 µM (inactive)
same,GI50,[44],2.84 µM (inactive)
same,GI50,[45],9.48 µM (inactive)
same,GI50,[46],4.06 µM (inactive)
same,GI50,[47],2.1 µM (inactive)
same,GI50,[48],10.7 µM (inactive)
same,GI50,[49],6.44 µM (inactive)
same,GI50,[50],2 µM (inactive)
same,GI50,[51],7.98 µM (inactive)
same,GI50,[52],5.66 µM (inactive)
same,GI50,[53],5.57 µM (inactive)
same,GI50,[54],11.7 µM (inactive)
same,GI50,[55],11.6 µM (inactive)
same,GI50,[56],2.14 µM (inactive)
same,GI50,[57],10.2 µM (inactive)
same,GI50,[58],2.22 µM (inactive)
same,GI50,[59],6.07 µM (inactive)
O=C1C=CC=C/C1=C1/SC(c2ccccc2)=C(O)N1c1ccccc1,GI50,[1],> 100 µM (inactive)
same,GI50,[60],> 100 µM (inactive)
same,GI50,[3],> 100 µM (inactive)
same,GI50,[7],> 100 µM (inactive)
same,GI50,[9],> 100 µM (inactive)
same,GI50,[10],> 100 µM (inactive)
same,GI50,[11],> 100 µM (inactive)
same,GI50,[12],> 100 µM (inactive)
same,GI50,[13],> 100 µM (inactive)
same,GI50,[14],> 100 µM (inactive)
same,GI50,[61],> 100 µM (inactive)
same,GI50,[19],> 100 µM (inactive)
same,GI50,[21],> 100 µM (inactive)
same,GI50,[22],> 100 µM (inactive)
same,GI50,[24],> 100 µM (inactive)
same,GI50,[25],> 100 µM (inactive)
same,GI50,[26],> 100 µM (inactive)
same,GI50,[29],> 100 µM (inactive)
same,GI50,[31],> 100 µM (inactive)
same,GI50,[62],> 100 µM (inactive)
same,GI50,[34],> 100 µM (inactive)
same,GI50,[35],> 100 µM (inactive)
same,GI50,[36],> 100 µM (inactive)
same,GI50,[37],> 100 µM (inactive)
same,GI50,[38],> 100 µM (inactive)
same,GI50,[40],> 100 µM (inactive)
same,GI50,[41],> 100 µM (inactive)
same,GI50,[42],> 100 µM
same,GI50,[43],> 100 µM (inactive)
same,GI50,[45],> 100 µM (inactive)
same,GI50,[63],> 100 µM (inactive)
same,GI50,[64],> 100 µM (inactive)
same,GI50,[46],> 100 µM (inactive)
same,GI50,[47],> 100 µM (inactive)
same,GI50,[48],> 100 µM (inactive)
same,GI50,[49],> 100 µM (inactive)
same,GI50,[50],> 100 µM (inactive)
same,GI50,[51],> 100 µM (inactive)
same,GI50,[53],> 100 µM (inactive)
same,GI50,[55],> 100 µM (inactive)
same,GI50,[57],> 100 µM (inactive)
same,GI50,[58],> 100 µM (inactive)
same,GI50,[65],> 100 µM (inactive)
same,GI50,[59],> 100 µM (inactive)
Nc1c2c(nc3ccccc13)-c1ccccc1CCC2,GI50,[1],13.7 µM (inactive)
same,GI50,[2],13.2 µM (inactive)
same,GI50,[3],14.1 µM (inactive)
same,GI50,[4],13.2 µM (inactive)
same,GI50,[5],13.1 µM (inactive)
same,GI50,[6],15.1 µM (inactive)
same,GI50,[7],15.2 µM (inactive)
same,GI50,[8],14.2 µM (inactive)
same,GI50,[9],13.4 µM (inactive)
same,GI50,[10],15 µM (inactive)
same,GI50,[11],15.6 µM (inactive)
same,GI50,[12],9.12 µM (inactive)
same,GI50,[13],17.6 µM (inactive)
same,GI50,[14],12.7 µM (inactive)
same,GI50,[15],6.65 µM (inactive)
same,GI50,[16],8.34 µM (inactive)
same,GI50,[17],15.5 µM (inactive)
same,GI50,[18],13.5 µM (inactive)
same,GI50,[19],14.1 µM (inactive)
same,GI50,[20],2.39 µM (inactive)
same,GI50,[21],14.1 µM (inactive)
same,GI50,[22],7.16 µM (inactive)
same,GI50,[23],17.6 µM (inactive)
same,GI50,[24],15 µM (inactive)
same,GI50,[25],11.2 µM (inactive)
same,GI50,[26],13.8 µM (inactive)
same,GI50,[27],12.7 µM (inactive)
same,GI50,[28],13.8 µM (inactive)
same,GI50,[29],15 µM (inactive)
same,GI50,[30],13.5 µM (inactive)
same,GI50,[31],10.5 µM (inactive)
same,GI50,[32],10.1 µM (inactive)
same,GI50,[33],8.22 µM (inactive)
same,GI50,[34],10.7 µM (inactive)
same,GI50,[35],14.1 µM (inactive)
same,GI50,[36],13.6 µM (inactive)
same,GI50,[37],14.4 µM (inactive)
same,GI50,[38],10.2 µM (inactive)
same,GI50,[39],4.89 µM (inactive)
same,GI50,[40],7.91 µM (inactive)
same,GI50,[41],17.7 µM (inactive)
same,GI50,[42],14.3 µM
same,GI50,[43],3.08 µM (inactive)
same,GI50,[44],8.67 µM (inactive)
same,GI50,[45],14.4 µM (inactive)
same,GI50,[46],5.98 µM (inactive)
same,GI50,[47],10.3 µM (inactive)
same,GI50,[48],15.7 µM (inactive)
same,GI50,[49],11.6 µM (inactive)
same,GI50,[50],14.1 µM (inactive)
same,GI50,[51],16.3 µM (inactive)
same,GI50,[52],20.2 µM (inactive)
same,GI50,[53],14.4 µM (inactive)
same,GI50,[54],10.2 µM (inactive)
same,GI50,[55],5.94 µM (inactive)
same,GI50,[56],13.6 µM (inactive)
same,GI50,[57],17.3 µM (inactive)
same,GI50,[58],13 µM (inactive)
same,GI50,[59],10.7 µM (inactive)
